Experimental data taken from patent US11845747B2, “Ester and carbonate pyrimidine compounds as JAK kinase inhibitors” (priority 2019, dated 2023).

How the values were obtained:
[1] = In vitro skin S9 metabolic stability assay (mouse); format: in vitro ADME; conditions: mouse skin S9 sub-fraction, pH 7.4, 1.0 mg/mL protein, 1 mM NADPH, read-out: Half-Life; for half-life at 0.2 μM: Mouse skin S9, 0.2 μM; for half-life at 2 μM: Mouse skin S9, 2 μM
Description: (§1) Assay 6: In Vitro Skin S9 Metabolic Stability Assay
(§2) The objective of this assay was to assess the metabolic stability of compounds in human and mouse skin S9 sub-fraction. Human and mouse skin S9 sub-fractions obtained from Bioreclamation-IVT (Baltimore, Md.) were thawed on ice and diluted into 0.1M potassium phosphate buffer pH 7.4 to yield final incubation protein concentrations of 1.0 mg/mL. Test compounds (10 mM) were diluted into phosphate buffer to yield final incubation concentrations of 0.2 μM and 2.0 μM. Incubations were conducted at 37° C. temperature following addition of 1 mM NADPH and test aliquots were taken at time points 0, 5, 10, 20, 30 and 45 minutes. Each aliquot was crashed into water with 3% formic acid and 1 μM internal standard. The resulting samples were injected onto an LC-MS/MS system for analysis.
(§3) For each incubation, the peak area of the analytes in each t0 aliquot was set to 100% and the peak areas from subsequent time point aliquots were converted to percentage of parent compound remaining relative to t0. The percentage of parent compound remaining at each time point was converted to natural log scale and plotted versus time in minutes to determine a disappearance half-life.

[2] = In vitro skin S9 metabolic stability assay (human); format: in vitro ADME; conditions: human skin S9 sub-fraction, pH 7.4, 1.0 mg/mL protein, 1 mM NADPH, read-out: Half-Life; for half-life at 0.2 μM: Human skin S9, 0.2 μM; for half-life at 2 μM: Human skin S9, 2 μM
Description: as §1, §2, §3

half-life at 0.2 μM [1] [min] | half-life at 2 μM [1] [min] | half-life at 0.2 μM [2] [min] | half-life at 2 μM [2] [min] | SMILES
> 30 | > 30 | > 30 | > 30 | CCOc1ccc2ccc(=O)oc2c1 [7-Ethoxycoumarin, reference compound]
< 15 | < 15 | < 15 | < 15 | CC(Cc1cccc(C(F)(F)F)c1)NCCOC(=O)c1ccccc1 (centres unmarked) [Benfluorex, reference compound]
